Measured values: patent publication US10100050B2 (CHIESI FARMACEUTICI S.P.A., priority 2015, dated 2018)
Where a name gives a salt, the structure may show the parent alone.

Columns and labels:
p38alpha = molecular target: T1, p38alpha (Homo sapiens, UniProt Q16539); assay: P38alpha enzyme inhibition assay (Alphascreen kinase activity assay); assay type: biochemical; settings: IC50 classes; 2 hours preincubation at 25° C., 250 μM ATP; read-out: p38α inhibition
T1 construct: purchased Invitrogen PV3304
In short: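 p38alpha with 0.3 μg/ml ATF-2 fusion protein in HEPES pH 7.5 buffer (10 mM MgCl2, 2 mM DTT, 1% DMSO); compounds preincubated 2 h at 25° C, then 250 μM ATP added for 1 h at 25° C. Phospho-ATF2 detected by AlphaScreen luminescence with anti-phospho-ATF2 antibody; IC50 from concentration-response curves.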

[1] = tested on: Peripheral Blood Mononuclear Cells (PBMCs); assay: LPS-stimulated PBMC TNFα release assay; assay type: cell-based; settings: IC50 classes; human PBMC, LPS 10 ng/ml, 18 h; read-out: LPS-stimulated PBMC TNFα release inhibition
In short: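 Human PBMCs from healthy donors, adhered 3 h in serum-free RPMI, received compound for 1 h in 1% FBS medium before 10 ng/ml LPS for 18 h. Supernatant TNFα was measured by MSD; IC50 from percentage inhibition of control release, at least three separate experiments.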

BEAS-2B cells = assay: TNFα-stimulated BEAS-2B IL-8 release assay; assay type: cell-based; settings: Homo sapiens, IC50 classes, TNF-α 10 ng/ml, 18 h, read-out: TNFα-stimulated BEAS-2B IL-8 release inhibition
In short: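 BEAS-2B cells at 80-90% confluence were pre-incubated 1 h with p38 inhibitors, then stimulated 18 h at 37 °C with TNF-α (10 ng/ml). Supernatant IL-8 was measured by ELISA. IC50 was taken from sigmoidal variable-slope fits of % inhibition of control release.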

T1 sequence (Q16539 whole entry): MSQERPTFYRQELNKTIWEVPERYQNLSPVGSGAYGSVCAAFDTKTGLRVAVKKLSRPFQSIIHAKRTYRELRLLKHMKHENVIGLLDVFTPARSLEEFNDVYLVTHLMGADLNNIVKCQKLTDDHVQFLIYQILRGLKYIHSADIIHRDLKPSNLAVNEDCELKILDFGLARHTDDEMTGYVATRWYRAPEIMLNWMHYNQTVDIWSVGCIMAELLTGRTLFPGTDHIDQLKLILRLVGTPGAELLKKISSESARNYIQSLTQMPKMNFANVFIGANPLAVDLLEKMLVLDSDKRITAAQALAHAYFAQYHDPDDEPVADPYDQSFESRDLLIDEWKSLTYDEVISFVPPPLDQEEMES

| SMILES | IC50 (p38alpha) [nM] | IC50 [1] [nM] | IC50 (BEAS-2B cells) [nM] |
| --- | --- | --- | --- |
| CN1CCC[C@@]1(C)c1nnc2ccc(O[C@@H]3CC[C@H](NC(=O)Nc4cc(N5CCNCC5)cc(C(C)(C)C)c4)c4ccccc43)cn12 [Example 64, 1-(3-tert-Butyl-5-piperazin-1-yl-phenyl)-3-{(1S,4R)-4-[3-((S)-1,2-dimethyl-pyrrolidin-2-yl)-[1,2,4]triazolo[4,3-a]pyridin-6-yloxy]-1,2,3,4-tetrahydro-naphthalen-1-yl}-urea] | < 1 | > 5 | > 1 |
| C[C@H]1CCCCN1c1nnc2ccc(O[C@@H]3CC[C@H](NC(=O)Nc4cc(CN(C)CCO)cc(C(C)(C)C)c4)c4ccccc43)cn12 [Example 68, 1-(3-tert-Butyl-5-{[(2-hydroxy-ethyl)-methyl-amino]-methyl}-phenyl)-3-{(1S,4R)-4-[3-((S)-2-methyl-piperidin-1-yl)-[1,2,4]triazolo[4,3-a]pyridin-6-yloxy]-1,2,3,4-tetrahydro-naphthalen-1-yl}-urea] | < 1 | > 5 | > 1 |
| CN1CCC[C@@]1(C)c1nnc2ccc(O[C@@H]3CC[C@H](NC(=O)Nc4cc(C(C)(C)C)ccc4CN4CCOCC4)c4ccccc43)cn12 [Example 73, 1-(5-tert-Butyl-2-morpholin-4-ylmethyl-phenyl)-3-{(1S,4R)-4-[3-((S)-1,2-dimethyl-pyrrolidin-2-yl)-[1,2,4]triazolo[4,3-a]pyridin-6-yloxy]-1,2,3,4-tetrahydro-naphthalen-1-yl}-urea] | 1 to 10 | > 5 | 0.3 to 1 |
| CN1CCC[C@@]1(C)c1nnc2ccc(O[C@@H]3CC[C@H](NC(=O)Nc4cc(C(C)(C)C)ccc4CO)c4ccccc43)cn12 [Example 59, 1-(5-tert-Butyl-2-hydroxymethyl-phenyl)-3-{(1S,4R)-4-[3-((S)-1,2-dimethyl-pyrrolidin-2-yl)-[1,2,4]triazolo[4,3-a]pyridin-6-yloxy]-1,2,3,4-tetrahydro-naphthalen-1-yl}-urea] | < 1 | < 1 | < 0.3 |
| C[C@H]1CCCCN1c1nnc2ccc(O[C@@H]3CC[C@H](NC(=O)Nc4cc(COCCN(C)C)cc(C(C)(C)C)c4)c4ccccc43)cn12 [Example 70, 1-[3-tert-Butyl-5-(2-dimethylamino-ethoxymethyl)-phenyl]-3-{(1S,4R)-4-[3-((S)-2-methyl-piperidin-1-yl)-[1,2,4]triazolo[4,3-a]pyridin-6-yloxy]-1,2,3,4-tetrahydro-naphthalen-1-yl}-urea] | < 1 | > 5 | 0.3 to 1 |
| CN1CCC[C@@]1(C)c1nnc2ccc(O[C@@H]3CC[C@H](NC(=O)Nc4cc(COCCN5CCOCC5)cc(C(C)(C)C)c4)c4ccccc43)cn12 [Example 72, 1-[3-tert-Butyl-5-(2-morpholin-4-yl-ethoxymethyl)-phenyl]-3-{(1S,4R)-4-[3-((S)-1,2-dimethyl-pyrrolidin-2-yl)-[1,2,4]triazolo[4,3-a]pyridin-6-yloxy]-1,2,3,4-tetrahydro-naphthalen-1-yl}-urea] | < 1 | > 5 | 0.3 to 1 |
| CC(C)(C)c1cc(NC(=O)N[C@H]2CC[C@@H](Oc3ccc4nnc([C@@H]5CCCN5CCO)n4c3)c3ccccc32)cc(NS(C)(=O)=O)c1 [Example 31, N-{3-tert-Butyl-5-[3-((1S,4R)-4-{3-[(S)-1-(2-hydroxy-ethyl)-pyrrolidin-2-yl]-[1,2,4]triazolo[4,3-a]pyridin-6-yloxy}-1,2,3,4-tetrahydro-naphthalen-1-yl)-ureido]-phenyl}-methanesulfonamide] | < 1 | > 5 | > 1 |

Second part, led by results:

| IC50 (p38alpha) [nM] | SMILES | IC50 [1] [nM] | IC50 (BEAS-2B cells) [nM] |
| --- | --- | --- | --- |
| < 1 | CNC(=O)c1cc(C(C)(C)C)cc(NC(=O)N[C@H]2CC[C@@H](Oc3ccc4nnc([C@@H]5CCCN5C)n4c3)c3ccccc32)c1OC [Example 7, 5-tert-Butyl-2-methoxy-N-methyl-3-(3-{(1S,4R)-4-[3-((S)-1-methyl-pyrrolidin-2-yl)-[1,2,4]triazolo[4,3-a]pyridin-6-yloxy]-1,2,3,4-tetrahydro-naphthalen-1-yl}-ureido)-benzamide hydrochloride salt] | < 1 | 0.3 to 1 |
| 1 to 10 | COCCS(=O)(=O)Nc1cc(C(C)(C)C)cc(NC(=O)N[C@H]2CC[C@@H](Oc3ccc4nnc(C(C)(C)N(C)C)n4c3)c3ccccc32)c1OC [Example 15, 2-Methoxy-ethanesulfonic acid [5-tert-butyl-3-(3-{(1S,4R)-4-[3(1-dimethylamino-1-methyl-ethyl)-[1,2,4]triazolo[4,3-a]pyridin-6-yloxy]-1,2,3,4-tetrahydro-naphthalen-1-yl}-ureido)-2-methoxy-phenyl]-amide hydrochloride salt] | < 1 | < 0.3 |
| < 1 | CN1CCOC[C@H]1c1nnc2ccc(O[C@@H]3CC[C@H](NC(=O)Nc4cc(NS(C)(=O)=O)cc(C(C)(C)C)c4)c4ccccc43)cn12 [Example 25, N-[3-tert-Butyl-5-(3-{(1S,4R)-4-[3-((R)-4-methyl-morpholin-3-yl)-[1,2,4]triazolo[4,3-a]pyridin-6-yloxy]-1,2,3,4-tetrahydro-naphthalenyl}-ureido)-phenyl]-methanesulfonamide] | > 5 | > 1 |
| < 1 | CN(C)C(C)(C)c1nnc2ccc(O[C@@H]3CC[C@H](NC(=O)Nc4cc(NS(C)(=O)=O)cc(C(C)(C)C)c4)c4ccccc43)cn12 [Example 19, N-[3-tert-Butyl-5-(3-{(1S,4R)-4-[3-(1-dimethylamino-1-methyl-ethyl)-[1,2,4]triazolo[4,3-a]pyridin-6-yloxy]-1,2,3,4-tetrahydro-naphthalen-1-yl}-ureido)-phenyl]-methanesulfonamide] | < 1 | < 0.3 |
| 1 to 10 | CCS(=O)(=O)Nc1cc(C(C)(C)C)cc(NC(=O)N[C@H]2CC[C@@H](Oc3ccc4nnc(C(C)(C)N(C)C)n4c3)c3ccccc32)c1OC [Example 13, Ethanesulfonic acid [5-tert-butyl-3-(3-{(1S,4R)-4-[3(1-dimethylamino-1-methyl-ethyl)-[1,2,4]triazolo[4,3-a]pyridin-6-yloxy]-1,2,3,4-tetrahydro-naphthalen-1-yl}-ureido)-2-methoxy-phenyl]-amide hydrochloride salt] | < 1 | < 0.3 |
| 1 to 10 | COc1c(NC(C)=O)cc(C(C)(C)C)cc1NC(=O)N[C@H]1CC[C@@H](Oc2ccc3nnc([C@@H]4CCCN4C(C)C)n3c2)c2ccccc21 [Example 9, N-[5-tert-Butyl-3-(3-{(1S,4R)-4-[3-((S)-1-isopropyl-pyrrolidin-2-yl)-[1,2,4]triazolo[4,3-a]pyridin-6-yloxy]-1,2,3,4-tetrahydro-naphthalen-1-yl}-ureido)-2-methoxy-phenyl]-acetamide] | < 1 | < 0.3 |
| < 1 | Cc1c(NC(=O)N[C@H]2CC[C@@H](Oc3ccc4nnc([C@@H]5CCCN5C)n4c3)c3ccccc32)cc(C(C)(C)C)cc1NS(C)(=O)=O [Example 57, N-[5-tert-Butyl-2-methyl-3-(3-{(1S,4R)-4-[3-((S)-1-methyl-pyrrolidin-2-yl)-[1,2,4]triazolo[4,3,a]pyridin-6-yloxy]-1,2,3,4-tetrahydro-naphthalen-1-yl}-ureido)-phenyl]-methanesulfonamide] | 1 to 5 | > 1 |
| < 1 | CNS(=O)(=O)c1cc(NC(=O)N[C@H]2CC[C@@H](Oc3ccc4nnc([C@]5(C)CCCN5C)n4c3)c3ccccc32)cc(C(C)(C)C)c1 [Example 39, 3-tert-Butyl-5-(3-{(1S,4R)-4-[3-((S)-1,2-dimethyl-pyrrolidin-2-yl)-[1,2,4]triazolo[4,3-a]pyridin-6-yloxy]-1,2,3,4-tetrahydro-naphthalen-1-yl}-ureido)-N-methyl-benzenesulfonamide] | < 1 | < 0.3 |
| < 1 | COc1ccc(C(C)(C)C)cc1NC(=O)N[C@H]1CC[C@@H](Oc2ccc3nnc([C@@H]4CCCN4C)n3c2)c2ccccc21 [Example 1, hydrochloride salt] | < 1 | < 0.3 |
| < 1 | COc1c(NC(C)=O)cc(C(C)(C)C)cc1NC(=O)N[C@H]1CC[C@@H](Oc2ccc3nnc([C@@H]4CCCN4C)n3c2)c2ccccc21 [Example 11, N-[5-tert-Butyl-2-methoxy-3-(3-{(1S,4R)-4-[3-((S)-1-methyl-pyrrolidin-2-yl)-[1,2,4]triazolo[4,3-a]pyridin-6-yloxy]-1,2,3,4-tetrahydro-naphthalen-1-yl}-ureido)-phenyl]-acetamide] | < 1 | > 1 |
| < 1 | CN1CCCC[C@H]1c1nnc2ccc(O[C@@H]3CC[C@H](NC(=O)Nc4cc(NS(C)(=O)=O)cc(C(C)(C)C)c4)c4ccccc43)cn12 [Example 61, N-[3-tert-Butyl-5-(3-{(1S,4R)-4-[3-((S)-1-methyl-piperidin-2-yl)-[1,2,4]triazolo[4,3-a]pyridin-6-yloxy]-1,2,3,4-tetrahydro-naphthalen-1-yl}-ureido)-phenyl]-methanesulfonamide] | 1 to 5 | > 1 |
